From US8466155B2, “Pyrimidines” (Boehringer Ingelheim International GmbH, priority 2009, dated 2013)

These compounds were tested against T1, PTK2 (Homo sapiens, UniProt Q05397) (assay: PTK2 enzyme test, Assay 1 (DELFIA, PT60 antibody)). Conditions: 1 h pre-incubation, 1 h kinase reaction, values without *.
T1 construct: purchased Invitrogen PV3832
T1 sequence (Q05397 whole entry): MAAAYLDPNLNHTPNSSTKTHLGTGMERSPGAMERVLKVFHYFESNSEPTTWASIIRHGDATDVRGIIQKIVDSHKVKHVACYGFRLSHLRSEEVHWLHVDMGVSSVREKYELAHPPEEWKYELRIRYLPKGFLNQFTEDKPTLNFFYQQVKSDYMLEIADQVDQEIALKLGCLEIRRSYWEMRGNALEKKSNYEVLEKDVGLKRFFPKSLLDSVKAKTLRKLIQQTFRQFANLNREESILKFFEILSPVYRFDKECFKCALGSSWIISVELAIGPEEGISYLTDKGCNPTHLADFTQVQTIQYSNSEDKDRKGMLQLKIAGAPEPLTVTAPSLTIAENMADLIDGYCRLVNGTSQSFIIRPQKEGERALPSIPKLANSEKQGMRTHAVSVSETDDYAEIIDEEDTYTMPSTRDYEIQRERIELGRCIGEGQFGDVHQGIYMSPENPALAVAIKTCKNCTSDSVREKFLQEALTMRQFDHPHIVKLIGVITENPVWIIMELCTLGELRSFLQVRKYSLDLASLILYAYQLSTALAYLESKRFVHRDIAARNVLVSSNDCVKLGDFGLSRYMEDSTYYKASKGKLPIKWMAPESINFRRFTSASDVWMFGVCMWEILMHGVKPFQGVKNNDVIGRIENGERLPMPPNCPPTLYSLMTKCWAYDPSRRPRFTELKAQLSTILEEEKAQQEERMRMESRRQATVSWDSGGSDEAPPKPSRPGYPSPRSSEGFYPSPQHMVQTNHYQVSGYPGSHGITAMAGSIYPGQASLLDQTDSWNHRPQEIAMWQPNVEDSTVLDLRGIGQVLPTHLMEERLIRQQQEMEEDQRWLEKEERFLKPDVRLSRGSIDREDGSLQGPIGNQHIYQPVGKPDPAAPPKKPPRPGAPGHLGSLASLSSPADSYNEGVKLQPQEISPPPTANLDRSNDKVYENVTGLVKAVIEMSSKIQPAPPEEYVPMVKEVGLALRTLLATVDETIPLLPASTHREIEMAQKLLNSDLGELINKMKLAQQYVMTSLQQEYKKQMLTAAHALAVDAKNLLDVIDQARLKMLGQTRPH
Assay type: biochemical
Procedure: This test uses active PTK2 enzyme (Invitrogen Code PV3832) and poly-Glu-Tyr (4:1, Sigma P-0275) as the kinase substrate. The kinase activity is detected through the phosphorylation of the substrate in a DELFIA™ assay. The phosphorylated substrate is detected with the europium-labelled phosphotyrosine antibody PT60 (Perkin Elmer, No.: AD00400).
In order to determine concentration-activity curves with PTK2-inhibitors the compounds are serially diluted in 10% DMSO/H20 and 10 μL of each dilution are placed in each well of a 96-well microtitre plate (clear plate with a U-shaped base, Greiner No. 650101) (the inhibitors are tested in duplicates) and mixed with 10 μL/well of PTK2 kinase (0.01 μg/well). PTK2 kinase has been correspondingly diluted beforehand with kinase dilution buffer (20 mM TRIS/HCl pH 7.5, 0.1 mM EDTA, 0.1 mM EGTA, 0.286 mM sodium orthovanadate, 10% glycerol with the addition of freshly prepared BSA (fraction V, 1 mg/mL) and DTT (1 mM)). The test compound and the PTK2 kinase are pre-incubated for 1 h at RT and shaken at 500 revolutions per min. The reaction is started by the addition of 10 μL/well poly (Glu,Tyr) substrate (25 μg/well poly (Glu, Tyr), 0.05 μg/well biotinylated poly (Glu,Tyr) dissolved in 250 mM TRIS/HCl pH 7.5, 9 mM DTT)—the final concentration of DMSO is 2%. Then 20 μL of ATP Mix (30 mM TRIS/HCl pH 7.5, 0.02% Brij, 0.2 mM sodium orthovanadate, 10 mM magnesium acetate, 0.1 mM EGTA, 1× phosphatase inhibitor cocktail 1 (Sigma, No.: P2850), 50 μM ATP (Sigma, No.: A3377; 15 mM stock solution)) are added. After 1 h of kinase reaction (the plates are shaken at 500 rpm), the reaction is stopped by the addition of 12 μL/well 100 mM EDTA, pH 8.0 and shaken for a further 5 min at RT (500 rpm). 55 μL of the reaction mixture are transferred into a streptavidin plate (Strepta Well High Bind (transparent, 96-well) made by Roche, No.: 11989685001) and incubated for 1 h at RT (shaking at 500 rpm). Then the microtitre plate is washed three times with 200 μL/well D-PBS (Invitrogen, No. 14190). 100 μL of a solution containing DELFIA Eu-N1 Anti-Phosphotyrosine PT60 antibody (Perkin Elmer, No.: AD0040, diluted 1:2000 in DELFIA test buffer (Perkin Elmer, No.: 1244-111)) is then added and the mixture is incubated for 1 h at RT (shaking at 500 rpm). Then the plate is washed three times with 200 μL/well DELFIA washing buffer (Perkin Elmer, No.: 1244-114), 200 μL/well strengthening solution (Perkin Elmer, No.: 1244-105) are added and the mixture is incubated for 10 min at RT (shaking at 300 rpm).
The time-delayed europium fluorescence is then measured in a microtitre plate reader (VICTOR^3, Perkin Elmer). […] Wells that contain test buffer instead of enzyme are used as a control of the background kinase activity.
The IC50 values are determined from analyses of the concentration activity by iterative calculation with the aid of a sigmoid curve analysis algorithm (FIFTY, based on GraphPAD Prism Version 3.03) with a variable Hill coefficient.
`CONC(=O)c1cc(OC)c(Nc2ncc(C(F)(F)F)c(O[C@@H]3Cc4ccccc4[C@H]3N(C)S(C)(=O)=O)n2)cc1F` [Example 1] was tested, and the IC50 was 6 nM. `COc1cc(C(=O)NCCN(C)C)c(F)cc1Nc1ncc(C(F)(F)F)c(O[C@@H]2Cc3ccccc3[C@H]2N(C)S(C)(=O)=O)n1` [Example 2] was tested, and the IC50 was 5 nM. `COc1cc(C(=O)NCC(C)(C)C)c(F)cc1Nc1ncc(C(F)(F)F)c(O[C@@H]2Cc3ccccc3[C@H]2N(C)S(C)(=O)=O)n1` [Example 3] showed an IC50 of 3 nM. For `COc1cc(C(=O)NCCn2ccnc2C)c(F)cc1Nc1ncc(C(F)(F)F)c(O[C@@H]2Cc3ccccc3[C@H]2N(C)S(C)(=O)=O)n1` [Example 4], the IC50 was 5 nM. `COc1cc(C(=O)NCCN2CCN(C)CC2)c(F)cc1Nc1ncc(C(F)(F)F)c(O[C@@H]2Cc3ccccc3[C@H]2N(C)S(C)(=O)=O)n1` [Example 5] showed an IC50 of 4 nM. `CNC(=O)c1cc(OC)c(Nc2ncc(C(F)(F)F)c(O[C@@H]3Cc4ccccc4[C@H]3N(C)S(C)(=O)=O)n2)cc1F` [Example 6] was tested, and the IC50 was 17 nM. In the case of `COc1cc(C(=O)N[C@H]2CC[C@H](N3CCN(CC4CC4)CC3)CC2)c(F)cc1Nc1ncc(C(F)(F)F)c(O[C@@H]2Cc3ccccc3[C@H]2N(C)S(C)(=O)=O)n1` [Example 7], the IC50 is reported as 8 nM. Work on `COc1cc(C(=O)NCCCN(C)C)c(F)cc1Nc1ncc(C(F)(F)F)c(O[C@@H]2Cc3ccccc3[C@H]2N(C)S(C)(=O)=O)n1` [Example 8] yielded an IC50 of 4 nM. Work on `COc1cc(C(=O)NCC2CC2)c(F)cc1Nc1ncc(C(F)(F)F)c(O[C@@H]2Cc3ccccc3[C@H]2N(C)S(C)(=O)=O)n1` [Example 9] yielded an IC50 of 19 nM. `COc1cc(C(=O)N[C@H]2CC[C@H](O)CC2)c(F)cc1Nc1ncc(C(F)(F)F)c(O[C@@H]2Cc3ccccc3[C@H]2N(C)S(C)(=O)=O)n1` [Example 10] showed an IC50 of 7 nM. For `COc1cc(C(=O)NCC(O)CO)ccc1Nc1ncc(C(F)(F)F)c(O[C@@H]2Cc3ccccc3[C@H]2N(C)S(C)(=O)=O)n1` (stereo partly shown) [Example 12], the IC50 was 4 nM. `COc1cc(C(=O)NCCn2ccnc2C)ccc1Nc1ncc(C(F)(F)F)c(O[C@@H]2Cc3ccccc3[C@H]2N(C)S(C)(=O)=O)n1` [Example 13] gave an IC50 of 4 nM. `COc1cc(C(=O)NCCN(C)C)ccc1Nc1ncc(C(F)(F)F)c(O[C@@H]2Cc3ccccc3[C@H]2N(C)S(C)(=O)=O)n1` [Example 14] gave an IC50 of 3 nM. In the case of `COc1cc(C(=O)NCC(C)(C)C)ccc1Nc1ncc(C(F)(F)F)c(O[C@@H]2Cc3ccccc3[C@H]2N(C)S(C)(=O)=O)n1` [Example 15], the IC50 is reported as 11 nM. In the case of `COc1cc(C(=O)NCCN2CCN(C)CC2)ccc1Nc1ncc(C(F)(F)F)c(O[C@@H]2Cc3ccccc3[C@H]2N(C)S(C)(=O)=O)n1` [Example 16], the IC50 is reported as 4 nM. Work on `CNC(=O)c1ccc(Nc2ncc(C(F)(F)F)c(O[C@@H]3Cc4ccccc4[C@H]3N(C)S(C)(=O)=O)n2)c(OC)c1` [Example 17] yielded an IC50 of 13 nM. For `COc1cc(C(=O)N[C@H]2CC[C@H](N3CCN(CC4CC4)CC3)CC2)ccc1Nc1ncc(C(F)(F)F)c(O[C@@H]2Cc3ccccc3[C@H]2N(C)S(C)(=O)=O)n1` [Example 18], the IC50 was 4 nM. In the case of `COc1cc(C(=O)NN2CCN(C)CC2)ccc1Nc1ncc(C(F)(F)F)c(O[C@@H]2Cc3ccccc3[C@H]2N(C)S(C)(=O)=O)n1` [Example 19], the IC50 is reported as 4 nM. Work on `COc1cc(C(=O)NCCCN(C)C)ccc1Nc1ncc(C(F)(F)F)c(O[C@@H]2Cc3ccccc3[C@H]2N(C)S(C)(=O)=O)n1` [Example 20] yielded an IC50 of 3 nM. `COc1cc(C(=O)NCC2CC2)ccc1Nc1ncc(C(F)(F)F)c(O[C@@H]2Cc3ccccc3[C@H]2N(C)S(C)(=O)=O)n1` [Example 21] was tested, and the IC50 was 12 nM. With `COc1cc(C(=O)N[C@H]2CC[C@H](O)CC2)ccc1Nc1ncc(C(F)(F)F)c(O[C@@H]2Cc3ccccc3[C@H]2N(C)S(C)(=O)=O)n1` [Example 22] the IC50 was 8 nM. `COc1cc(C(=O)NC2CCN(C)CC2)c(F)cc1Nc1ncc(C(F)(F)F)c(O[C@@H]2Cc3ccccc3[C@H]2NS(C)(=O)=O)n1` [Example 24, 2-fluoro-4-[4-((1R,2R)-1-methanesulphonylamino-indan-2-yloxy)-5-trifluoromethyl-pyrimidin-2-ylamino]-5-methoxy-N-(1-methyl-piperidin-4-yl)-benzamide] gave an IC50 of 1 nM.
